Values of other authors in patent publication US11492361B2, “Compounds useful in HIV therapy” (GlaxoSmithKline Intellectual Property Development Limited, priority 2018, dated 2022).

Experiments:
[1] = test system: cell-associated HIV RNA (HIV gag RNA) in CD4+ T cells; settings: background statement, primary cells / resting CD4+ T cells; cited from earlier work
[2] = test system: Jurkat HIV-luciferase clones; settings: background statement; cited from earlier work
p100/p52 = settings: background statement, primary cells; cited from earlier work

CC[C@H](NC(=O)[C@H](C)NC)C(=O)N1C[C@@H](O)C[C@H]1Cc1c(-c2[nH]c3cc(F)ccc3c2C[C@@H]2C[C@H](O)CN2C(=O)[C@H](CC)NC(=O)[C@H](C)NC)[nH]c2cc(F)ccc12 [Birinapant TL32711]
not potent: HIV caRNA induction [1] | potency in cell line assays / Jurkat (HIV latency reversal) [2] | p100-p52 conversion (p100/p52)
